Data taken from patent US5087614A, “Enzyme inhibitor and method of producing the same” (Suntory Limited, priority 1987, dated 1992).
Where a SMILES comes first, the peptide text is derived from it. [ ]: non-standard residue; d: D form. The star is where a group is joined. Sta = CC(C)C[C@H](N)[C@@H](O)CC(=O)O; Isovaleryl = CC(C)CC(=O)*

Target: T1, Pepsin (Bos taurus, UniProt P00792)
T1 construct: from tissue; host or cells: bovine pancreas (so in the source)
Assay: Inhibition against pepsin (hemoglobin degradation, UV absorption at 280 nm)
Type: biochemical, Bovine
Details: substrate 2.0% hemoglobin in 0.06N-hydrochloric acid, 35° C., 10 minutes; read-out: IC50 (concentration of the compound required to achieve 50% inhibition)
Procedure: (a) Inhibition against Pepsin from Bovine Pancreas
To this mixture was added (150-a) μl of 0.06N-hydrochloric acid to adjust the pH value of the mixture to 3 to 5. Each of the solutions was then mixed with a substrate solution to start the reaction. The substrate for the reaction comprised 2.0% hemoglobin in 800 μl of 0.06N-hydrochloric acid and the reaction was conducted at 35° C. for 10 minutes, the total volume of the reaction mixture being 1 ml. 3 ml of 5% trichloroacetic acid was then added to the reaction mixture to terminate the reaction. After the precipitates formed had been filtered off, the amount of protein in the trichloroacetic acid fraction which contained the components of hemoglobin hydrolyzed with pepsin was measured from the value of ultraviolet absorption at 280 nm.

T1 sequence (P00792 43-372): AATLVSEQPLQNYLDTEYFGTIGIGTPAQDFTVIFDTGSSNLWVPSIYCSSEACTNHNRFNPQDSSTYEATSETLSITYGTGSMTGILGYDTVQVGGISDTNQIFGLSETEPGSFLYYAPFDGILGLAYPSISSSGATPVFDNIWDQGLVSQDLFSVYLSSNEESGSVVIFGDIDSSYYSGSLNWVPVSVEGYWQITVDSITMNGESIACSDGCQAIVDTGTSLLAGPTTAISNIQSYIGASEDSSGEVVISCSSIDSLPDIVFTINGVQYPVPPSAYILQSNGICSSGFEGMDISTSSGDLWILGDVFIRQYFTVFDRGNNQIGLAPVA

- IC50: 0.0183 µM
SMILES: CC(C)CC(=O)N[C@H](C(=O)N[C@H](C(=O)N[C@@H](CC(C)C)[C@@H](O)CC(=O)N[C@@H](C)C(=O)N[C@@H](CC(C)C)[C@@H](O)CC(=O)O)C(C)C)C(C)C [Pepstatin] (Isovaleryl-VV[Sta]A[Sta]-OH)
